According to ChEMBL document CHEMBL1781926, “Synthesis of 1-naphtylpiperazine derivatives as serotoninergic ligands and their evaluation as antiproliferative agents” (Eur J Med Chem, 2011):
Activity calls are given as the source filed them. The calls are words filed in the database; no cut-off is given here.

Key:
PC-3 [1] = test: Induction of apoptosis in human PC3 cells at 15 uM after 72 hrs using propidium iodide staining by flow cytometry (reference value: 1.79 %); assay type: functional
PC-3 [2] = test: Induction of apoptosis in human PC3 cells at 15 uM after 24 hrs using propidium iodide staining by flow cytometry (reference value: 1.27 %); assay type: functional
PC-3 [3] = test: Cell cycle arrest in human PC3 cells assessed as accumulation at G2 phase at 15 uM after 72 hrs using propidium iodide staining by flow cytometry (reference value: 20.18 %); assay type: functional
PC-3 [4] = test: Cell cycle arrest in human PC3 cells assessed as accumulation at S phase at 15 uM after 24 hrs using propidium iodide staining by flow cytometry (reference value: 34.84 %); assay type: functional
PC-3 [5] = test: Cell cycle arrest in human PC3 cells assessed as accumulation at G2 phase at 15 uM after 48 hrs using propidium iodide staining by flow cytometry (reference value: 13.36 %); assay type: functional
PC-3 [6] = test: Cell cycle arrest in human PC3 cells assessed as accumulation at G1 phase at 15 uM after 72 hrs using propidium iodide staining by flow cytometry (reference value: 42.19 %); assay type: functional
PC-3 [7] = test: Cell cycle arrest in human PC3 cells assessed as accumulation at G1 phase at 15 uM after 48 hrs using propidium iodide staining by flow cytometry (reference value: 54.14 %); assay type: functional
PC-3 [8] = test: Induction of apoptosis in human PC3 cells at 15 uM after 48 hrs using propidium iodide staining by flow cytometry (reference value: 0.84 %); assay type: functional
PC-3 [9] = test: Cell cycle arrest in human PC3 cells assessed as accumulation at G2 phase at 15 uM after 24 hrs using propidium iodide staining by flow cytometry (reference value: 18.19 %); assay type: functional
PC-3 [10] = test: Antiproliferative activity against human PC3 cells assessed as growth inhibition after 96 hrs by SRB assay; assay type: functional, cell-based
PC-3 [11] = test: Cell cycle arrest in human PC3 cells assessed as accumulation at S phase at 15 uM after 72 hrs using propidium iodide staining by flow cytometry (reference value: 37.73 %); assay type: functional
PC-3 [12] = test: Cell cycle arrest in human PC3 cells assessed as accumulation at G1 phase at 15 uM after 24 hrs using propidium iodide staining by flow cytometry (reference value: 46.97 %); assay type: functional
PC-3 [13] = test: Cell cycle arrest in human PC3 cells assessed as accumulation at S phase at 15 uM after 48 hrs using propidium iodide staining by flow cytometry (reference value: 38.16 %); assay type: functional
PC-3 [14] = test: Inhibition of serotonin-induced MAPK phosphorylation in human PC3 cells at 15 uM after 48 hrs by Western blotting; assay type: cell-based
[15] = target: RAC-alpha serine/threonine-protein kinase (Homo sapiens) (UniProt P31749); test: Inhibition of serotonin-induced AKT phosphorylation in human PC3 cells at 15 uM after 48 hrs by Western blotting; assay type: cell-based; conditions: PC-3
RAC-alpha serine/threonine-protein kinase (Homo sapiens), sequence (P31749 whole entry): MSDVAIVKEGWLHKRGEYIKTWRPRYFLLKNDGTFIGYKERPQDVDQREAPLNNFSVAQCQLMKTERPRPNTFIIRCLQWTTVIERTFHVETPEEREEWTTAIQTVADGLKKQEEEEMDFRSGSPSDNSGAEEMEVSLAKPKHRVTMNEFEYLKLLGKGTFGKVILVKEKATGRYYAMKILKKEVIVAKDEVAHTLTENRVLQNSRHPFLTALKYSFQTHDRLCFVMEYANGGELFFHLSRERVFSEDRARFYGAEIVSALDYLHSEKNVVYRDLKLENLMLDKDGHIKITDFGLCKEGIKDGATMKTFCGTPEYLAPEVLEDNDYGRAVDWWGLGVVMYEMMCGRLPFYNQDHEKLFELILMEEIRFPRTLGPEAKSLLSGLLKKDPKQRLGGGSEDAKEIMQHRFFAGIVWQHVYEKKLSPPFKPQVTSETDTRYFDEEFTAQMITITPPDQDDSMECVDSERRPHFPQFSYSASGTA

D(2) dopamine receptor = D(2) dopamine receptor (Rattus norvegicus, UniProt P61169); test: Displacement of [3H]spiperone from dopamine D2 receptor in rat corpora striatum homogenates after 15 mins by liquid scintillation counting
D(2) dopamine receptor, sequence (P61169 whole entry): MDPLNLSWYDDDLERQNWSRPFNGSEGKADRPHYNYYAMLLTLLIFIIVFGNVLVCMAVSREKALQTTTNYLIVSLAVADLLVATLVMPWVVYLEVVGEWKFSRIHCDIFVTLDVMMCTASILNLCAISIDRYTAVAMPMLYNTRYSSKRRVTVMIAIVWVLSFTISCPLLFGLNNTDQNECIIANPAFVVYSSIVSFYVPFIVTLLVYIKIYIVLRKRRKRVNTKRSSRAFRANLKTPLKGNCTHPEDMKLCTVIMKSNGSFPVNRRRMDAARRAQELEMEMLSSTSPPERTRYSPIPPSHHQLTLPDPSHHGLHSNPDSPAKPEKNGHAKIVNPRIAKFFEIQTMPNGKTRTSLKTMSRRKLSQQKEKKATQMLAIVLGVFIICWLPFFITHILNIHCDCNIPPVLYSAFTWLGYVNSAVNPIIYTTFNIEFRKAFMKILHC

[16] = target: 5-hydroxytryptamine receptor 2A (Rattus norvegicus, UniProt P14842); test: Displacement of [3H]Ketanserin from 5HT2A receptor in Sprague-Dawley rat frontal cortical homogenates after 15 mins
5-hydroxytryptamine receptor 2A, sequence (P14842 whole entry): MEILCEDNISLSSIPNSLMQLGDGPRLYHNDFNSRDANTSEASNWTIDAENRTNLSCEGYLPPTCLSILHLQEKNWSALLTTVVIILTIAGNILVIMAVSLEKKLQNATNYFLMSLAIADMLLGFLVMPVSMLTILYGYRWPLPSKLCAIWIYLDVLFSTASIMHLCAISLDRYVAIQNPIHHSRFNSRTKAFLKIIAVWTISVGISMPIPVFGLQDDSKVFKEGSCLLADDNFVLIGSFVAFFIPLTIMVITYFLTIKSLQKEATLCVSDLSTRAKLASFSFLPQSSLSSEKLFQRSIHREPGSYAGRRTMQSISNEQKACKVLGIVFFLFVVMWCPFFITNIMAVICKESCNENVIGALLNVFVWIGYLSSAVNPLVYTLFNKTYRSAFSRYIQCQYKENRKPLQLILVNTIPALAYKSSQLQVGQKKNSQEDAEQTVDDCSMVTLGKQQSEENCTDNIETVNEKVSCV

D(1A) dopamine receptor = D(1A) dopamine receptor (Rattus norvegicus, UniProt P18901); test: Displacement of [3H]SCH 23390 from dopamine D1 receptor in rat corpora striatum homogenates after 15 mins by liquid scintillation counting
D(1A) dopamine receptor, sequence (P18901 whole entry): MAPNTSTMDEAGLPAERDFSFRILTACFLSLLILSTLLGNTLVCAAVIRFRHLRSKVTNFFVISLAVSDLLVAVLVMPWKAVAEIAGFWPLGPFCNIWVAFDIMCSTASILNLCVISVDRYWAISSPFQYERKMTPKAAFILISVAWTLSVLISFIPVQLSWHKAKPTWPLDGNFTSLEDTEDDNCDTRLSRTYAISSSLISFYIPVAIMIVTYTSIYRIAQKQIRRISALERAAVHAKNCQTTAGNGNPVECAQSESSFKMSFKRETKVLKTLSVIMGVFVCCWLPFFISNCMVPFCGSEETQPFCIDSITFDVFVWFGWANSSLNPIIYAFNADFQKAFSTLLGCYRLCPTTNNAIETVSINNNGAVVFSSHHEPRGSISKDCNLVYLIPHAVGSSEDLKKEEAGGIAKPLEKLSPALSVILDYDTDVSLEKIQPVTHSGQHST

[17] = target: T1, 5-hydroxytryptamine receptor 1A (Rattus norvegicus, UniProt P19327); test: Displacement of [3H]8-OH-DPAT from 5HT1A receptor in Sprague-Dawley rat brain cortex homogenates after 30 mins by liquid scintillation counting; assay type: tissue-based
T1 sequence (P19327 whole entry): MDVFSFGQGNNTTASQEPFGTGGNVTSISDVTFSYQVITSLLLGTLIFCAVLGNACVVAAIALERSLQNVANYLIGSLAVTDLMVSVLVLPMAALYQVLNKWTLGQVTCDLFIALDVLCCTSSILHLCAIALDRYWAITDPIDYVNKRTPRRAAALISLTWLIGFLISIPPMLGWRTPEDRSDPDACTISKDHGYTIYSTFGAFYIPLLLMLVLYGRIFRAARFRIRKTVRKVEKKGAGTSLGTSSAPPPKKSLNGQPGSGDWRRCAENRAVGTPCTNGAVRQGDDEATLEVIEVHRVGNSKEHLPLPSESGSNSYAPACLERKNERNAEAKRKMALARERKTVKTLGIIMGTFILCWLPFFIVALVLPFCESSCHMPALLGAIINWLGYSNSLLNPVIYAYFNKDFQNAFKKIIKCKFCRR

[18] = target: T2, 5-hydroxytryptamine receptor 2C (Rattus norvegicus, UniProt P08909); test: Displacement of [3H]mesulergine from 5HT2C receptor in Sprague-Dawley rat frontal cortical homogenates after 15 mins
T2 sequence (P08909 whole entry): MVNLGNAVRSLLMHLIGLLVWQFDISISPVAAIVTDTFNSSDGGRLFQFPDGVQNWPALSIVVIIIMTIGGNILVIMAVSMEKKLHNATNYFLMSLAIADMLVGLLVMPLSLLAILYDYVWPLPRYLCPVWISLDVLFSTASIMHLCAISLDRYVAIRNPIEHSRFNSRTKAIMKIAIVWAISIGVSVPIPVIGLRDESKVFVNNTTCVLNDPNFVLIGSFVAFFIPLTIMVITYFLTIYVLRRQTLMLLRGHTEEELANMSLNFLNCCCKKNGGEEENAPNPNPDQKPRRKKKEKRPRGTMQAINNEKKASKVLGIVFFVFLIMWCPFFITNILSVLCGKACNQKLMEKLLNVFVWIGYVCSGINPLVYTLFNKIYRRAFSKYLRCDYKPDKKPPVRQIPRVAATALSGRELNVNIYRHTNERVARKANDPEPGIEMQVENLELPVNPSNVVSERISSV

[19] = target: T3, Adrenergic receptor alpha-2 (Rattus norvegicus, UniProt P22086+P19328+P22909); test: Displacement [3H]yohimbine from alpha 2 adrenergic receptor in rat brain cortex homogenates after 30 mins by liquid scintillation counting; assay type: tissue-based
T3 sequence (P22086 whole entry): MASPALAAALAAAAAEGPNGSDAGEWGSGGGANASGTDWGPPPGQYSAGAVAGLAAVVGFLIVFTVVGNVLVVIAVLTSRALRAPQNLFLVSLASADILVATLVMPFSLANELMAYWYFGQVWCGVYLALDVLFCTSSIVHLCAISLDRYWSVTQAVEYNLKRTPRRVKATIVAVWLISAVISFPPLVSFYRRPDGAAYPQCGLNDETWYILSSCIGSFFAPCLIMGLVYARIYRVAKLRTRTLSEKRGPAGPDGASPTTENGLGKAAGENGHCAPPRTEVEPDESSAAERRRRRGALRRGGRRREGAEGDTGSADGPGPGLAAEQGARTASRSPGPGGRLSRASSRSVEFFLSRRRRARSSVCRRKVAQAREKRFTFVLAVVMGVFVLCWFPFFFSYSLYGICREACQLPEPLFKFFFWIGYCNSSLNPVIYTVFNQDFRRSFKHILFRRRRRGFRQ
T3 sequence (P19328 whole entry): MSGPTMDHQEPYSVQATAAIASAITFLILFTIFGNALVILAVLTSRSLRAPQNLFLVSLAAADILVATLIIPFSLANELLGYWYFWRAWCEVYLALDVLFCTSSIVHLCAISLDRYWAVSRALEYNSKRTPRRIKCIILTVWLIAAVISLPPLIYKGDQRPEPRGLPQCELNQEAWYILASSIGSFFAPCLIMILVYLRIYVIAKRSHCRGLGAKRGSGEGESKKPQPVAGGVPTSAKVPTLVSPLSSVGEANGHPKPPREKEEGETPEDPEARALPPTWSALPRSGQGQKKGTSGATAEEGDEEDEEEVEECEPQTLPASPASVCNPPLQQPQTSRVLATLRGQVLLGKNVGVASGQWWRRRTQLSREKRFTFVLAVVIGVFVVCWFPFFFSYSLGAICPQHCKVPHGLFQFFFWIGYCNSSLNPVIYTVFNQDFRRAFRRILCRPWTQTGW
T3 sequence (P22909 whole entry): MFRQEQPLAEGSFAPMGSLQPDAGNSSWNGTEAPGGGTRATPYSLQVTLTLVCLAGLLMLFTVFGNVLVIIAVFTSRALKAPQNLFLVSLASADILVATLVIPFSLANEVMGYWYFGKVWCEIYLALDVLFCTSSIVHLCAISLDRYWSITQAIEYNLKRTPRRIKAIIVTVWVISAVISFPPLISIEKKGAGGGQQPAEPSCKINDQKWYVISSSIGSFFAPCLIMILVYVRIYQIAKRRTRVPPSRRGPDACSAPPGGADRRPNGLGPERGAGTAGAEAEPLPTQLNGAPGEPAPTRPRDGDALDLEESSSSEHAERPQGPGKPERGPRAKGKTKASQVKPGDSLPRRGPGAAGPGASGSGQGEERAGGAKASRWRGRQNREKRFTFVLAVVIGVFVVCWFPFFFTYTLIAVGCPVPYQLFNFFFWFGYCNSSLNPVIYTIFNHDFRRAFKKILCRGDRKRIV

[20] = target: T4, Adrenergic receptor alpha-1 (Rattus norvegicus, UniProt P15823+P23944+P43140); test: Displacement [3H]prazosin from alpha1 adrenergic receptor in rat brain cortex homogenates after 30 mins by liquid scintillation counting; assay type: tissue-based
T4 sequence (P15823 whole entry): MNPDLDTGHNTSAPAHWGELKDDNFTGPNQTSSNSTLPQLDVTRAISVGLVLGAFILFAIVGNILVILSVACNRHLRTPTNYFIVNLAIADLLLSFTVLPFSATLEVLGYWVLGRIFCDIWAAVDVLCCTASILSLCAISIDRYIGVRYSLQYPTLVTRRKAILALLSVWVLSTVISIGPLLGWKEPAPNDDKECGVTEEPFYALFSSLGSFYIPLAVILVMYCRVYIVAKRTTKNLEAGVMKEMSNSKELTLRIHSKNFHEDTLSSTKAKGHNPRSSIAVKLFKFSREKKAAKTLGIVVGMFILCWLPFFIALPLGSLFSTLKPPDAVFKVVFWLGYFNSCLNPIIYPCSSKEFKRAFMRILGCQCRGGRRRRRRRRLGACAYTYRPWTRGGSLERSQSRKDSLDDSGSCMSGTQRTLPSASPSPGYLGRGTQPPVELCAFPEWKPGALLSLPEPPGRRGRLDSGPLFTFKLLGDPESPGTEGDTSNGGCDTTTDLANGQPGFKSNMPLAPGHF
T4 sequence (P23944 whole entry): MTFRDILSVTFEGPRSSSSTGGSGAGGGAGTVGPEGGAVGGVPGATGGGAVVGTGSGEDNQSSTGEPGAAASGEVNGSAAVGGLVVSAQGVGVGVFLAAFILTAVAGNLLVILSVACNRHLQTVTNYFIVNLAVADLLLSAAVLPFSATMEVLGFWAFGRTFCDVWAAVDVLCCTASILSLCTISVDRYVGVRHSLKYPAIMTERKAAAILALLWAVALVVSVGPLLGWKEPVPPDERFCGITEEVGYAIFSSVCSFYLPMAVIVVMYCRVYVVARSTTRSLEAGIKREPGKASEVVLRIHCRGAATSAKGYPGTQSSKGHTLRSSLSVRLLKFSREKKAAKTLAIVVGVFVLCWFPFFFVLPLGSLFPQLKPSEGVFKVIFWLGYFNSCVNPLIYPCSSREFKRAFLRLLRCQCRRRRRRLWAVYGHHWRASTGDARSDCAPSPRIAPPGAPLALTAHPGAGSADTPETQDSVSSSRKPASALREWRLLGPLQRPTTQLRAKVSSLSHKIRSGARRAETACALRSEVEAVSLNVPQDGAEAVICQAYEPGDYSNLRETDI
T4 sequence (P43140 whole entry): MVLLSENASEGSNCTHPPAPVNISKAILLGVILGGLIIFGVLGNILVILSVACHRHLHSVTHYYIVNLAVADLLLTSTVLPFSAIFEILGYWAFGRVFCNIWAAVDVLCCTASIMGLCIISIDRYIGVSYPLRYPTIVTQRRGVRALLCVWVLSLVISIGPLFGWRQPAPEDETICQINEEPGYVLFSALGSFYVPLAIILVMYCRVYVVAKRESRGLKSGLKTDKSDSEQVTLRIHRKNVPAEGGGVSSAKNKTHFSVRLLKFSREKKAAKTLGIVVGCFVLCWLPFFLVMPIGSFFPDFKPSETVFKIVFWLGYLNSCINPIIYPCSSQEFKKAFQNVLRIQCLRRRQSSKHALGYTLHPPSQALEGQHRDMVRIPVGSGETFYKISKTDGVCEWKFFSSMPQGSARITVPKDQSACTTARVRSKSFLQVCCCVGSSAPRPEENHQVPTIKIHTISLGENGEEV

SMILES	Activity (PC-3 [1]) [%]	Activity (PC-3 [2]) [%]	Activity (PC-3 [3]) [%]	Activity (PC-3 [4]) [%]	Activity (PC-3 [5]) [%]	Activity (PC-3 [6]) [%]	Activity (PC-3 [7]) [%]	Activity (PC-3 [8]) [%]	Activity (PC-3 [9]) [%]	growth inhibition (GI) (PC-3 [10])	Activity (PC-3 [11]) [%]	Activity (PC-3 [12]) [%]	Activity (PC-3 [13]) [%]	other results
Br.COc1ccccc1N1CCN(CCCCN2C(=O)c3ccccc3C2=O)CC1	3.05	2.42	11.26	38.16	14.88	45.73	49.53	1.77	24.74	inactive	43.02	37.1	35.59	–
Br.CCCN(CCC)[C@H]1CCc2cccc(O)c2C1	2.65	0.73	13.17	34.96	14.92	50.34	47.78	2.2	24.42	inactive	36.5	40.62	37.31	inhibition (PC-3 [14]): inactive; inhibition [15]: Active
N#CNC(=NCCCN1CCN(c2cccc3ccccc23)CC1)c1ccncc1	–	–	–	–	–	–	–	–	–	–	–	–	–	Ki (D(2) dopamine receptor): 1600 nM; Ki [16]: 172 nM; Ki (D(1A) dopamine receptor): > 10000 nM; Ki [17]: > 10000 nM
N#C/N=C(\NCCCN1CCN(c2cccc3ccccc23)CC1)c1ccncc1	–	–	–	–	–	–	–	–	–	inactive	–	–	–	Ki [18]: Not Active; Ki [19]: 878 nM; Ki [20]: > 10000 nM
